The compounds below were run against b-Raf (V600E) (Homo sapiens (Human), UniProt P15056, V600E). Settings: read-out: b-Raf IC-50; AlphaScreen, 60 min pre-incubation, 3 hours reaction.
b-Raf (V600E), sequence (P15056 whole entry V600E): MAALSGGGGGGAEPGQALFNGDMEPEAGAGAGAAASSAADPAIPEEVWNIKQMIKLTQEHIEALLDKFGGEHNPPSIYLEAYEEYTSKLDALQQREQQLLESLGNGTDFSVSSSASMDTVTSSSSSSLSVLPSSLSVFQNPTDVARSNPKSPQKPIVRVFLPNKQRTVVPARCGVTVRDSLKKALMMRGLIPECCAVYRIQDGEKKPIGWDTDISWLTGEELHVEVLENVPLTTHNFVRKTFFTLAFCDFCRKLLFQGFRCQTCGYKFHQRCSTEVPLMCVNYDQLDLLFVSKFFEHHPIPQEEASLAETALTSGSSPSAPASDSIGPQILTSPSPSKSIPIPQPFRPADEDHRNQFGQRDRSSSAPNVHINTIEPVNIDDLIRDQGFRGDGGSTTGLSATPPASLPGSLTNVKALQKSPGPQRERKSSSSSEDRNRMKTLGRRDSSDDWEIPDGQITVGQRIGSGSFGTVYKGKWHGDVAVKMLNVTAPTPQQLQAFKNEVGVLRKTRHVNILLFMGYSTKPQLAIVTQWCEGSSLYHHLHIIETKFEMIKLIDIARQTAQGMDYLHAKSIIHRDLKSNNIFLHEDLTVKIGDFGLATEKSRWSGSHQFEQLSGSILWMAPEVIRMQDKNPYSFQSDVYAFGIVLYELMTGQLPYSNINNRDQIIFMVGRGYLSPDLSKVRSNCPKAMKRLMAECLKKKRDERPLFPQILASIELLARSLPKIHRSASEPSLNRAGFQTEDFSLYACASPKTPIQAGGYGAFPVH

Row | Compound | IC50 [nM]
1 | Cc1ccc(NC(=O)c2cc(C(F)(F)F)ccn2)cc1-c1cc(N2CCOCC2)c(OCCO)nn1 [Example 586, N-(3-(6-(2-hydroxyethoxy)-5-morpholinopyridazin-3-yl)-4-methylphenyl)-4-(trifluoromethyl)picolinamide] | 1
2 | Cc1ccc(NC(=O)c2ccnc(C(C)(F)F)c2)cc1-c1cc(N2CCOCC2)c(OC(C)C)nn1 [Example 592, 2-(1,1-difluoroethyl)-N-(3-(6-isopropoxy-5-morpholinopyridazin-3-yl)-4-methylphenyl)isonicotinamide] | 0.7
3 | Cc1ccc(NC(=O)c2ccnc(C(F)F)c2)cc1-c1cc(N2CCOCC2)c(OC(C)C)nn1 [Example 593, 2-(difluoromethyl)-N-(3-(6-isopropoxy-5-morpholinopyridazin-3-yl)-4-methylphenyl)isonicotinamide] | 0.6
4 | Cc1ccc(NC(=O)c2cc(C(F)(F)F)ccn2)cc1-c1cc(N2CCOCC2)c(OC(C)C)nn1 [Example 594, N-(3-(6-isopropoxy-5-morpholinopyridazin-3-yl)-4-methylphenyl)-4-(trifluoromethyl)picolinamide] | 0.8
5 | COc1nnc(-c2cc(NC(=O)c3ccnc(C(C)(F)F)c3)cnc2C)cc1N1CCOCC1 [Example 603, 2-(1,1-difluoroethyl)-N-(5-(6-methoxy-5-morpholinopyridazin-3-yl)-6-methylpyridin-3-yl)isonicotinamide] | 2.7
6 | COc1nnc(-c2cc(NC(=O)c3cccc(C(F)F)c3)cnc2C)cc1N1CCOCC1 [Example 604, 3-(difluoromethyl)-N-(5-(6-methoxy-5-morpholinopyridazin-3-yl)-6-methylpyridin-3-yl)benzamide] | 2.3
7 | COc1nnc(-c2cc(NC(=O)c3ccnc(C(F)(F)F)c3)cnc2C)cc1N1CCOCC1 [Example 605, N-(5-(6-methoxy-5-morpholinopyridazin-3-yl)-6-methylpyridin-3-yl)-2-(trifluoromethyl)isonicotinamide] | 2.7
8 | COc1nnc(-c2cc(NC(=O)c3ccnc(C4CC4)c3)cnc2C)cc1N1CCOCC1 [Example 606, 2-cyclopropyl-N-(5-(6-methoxy-5-morpholinopyridazin-3-yl)-6-methylpyridin-3-yl)isonicotinamide] | 3.5
9 | CCC(F)(F)c1cc(C(=O)Nc2cnc(C)c(-c3cc(N4CCOCC4)c(OC)nn3)c2)ccn1 [Example 607, 2-(1,1-difluoropropyl)-N-(5-(6-methoxy-5-morpholinopyridazin-3-yl)-6-methylpyridin-3-yl)isonicotinamide] | 4.7
10 | CCOc1nnc(-c2cc(NC(=O)c3cccc(C(F)(F)F)c3)cnc2C)cc1N1CCOCC1 [Example 609, N-(5-(6-ethoxy-5-morpholinopyridazin-3-yl)-6-methylpyridin-3-yl)-3-(trifluoromethyl)benzamide] | 0.9
11 | CCOc1nnc(-c2cc(NC(=O)c3ccnc(C(C)(C)F)c3)cnc2C)cc1N1CCOCC1 [Example 610, N-(5-(6-ethoxy-5-morpholinopyridazin-3-yl)-6-methylpyridin-3-yl)-2-(2-fluoropropan-2-yl)isonicotinamide] | 4.5
12 | CCOc1nnc(-c2cc(NC(=O)c3cc(C(F)(F)F)ccn3)cnc2C)cc1N1CCOCC1 [Example 611, N-(5-(6-ethoxy-5-morpholinopyridazin-3-yl)-6-methylpyridin-3-yl)-4-(trifluoromethyl)picolinamide] | 1.3
13 | CCOc1nnc(-c2cc(NC(=O)c3ccnc(C4CC4)c3)cnc2C)cc1N1CCOCC1 [Example 612, 2-cyclopropyl-N-(5-(6-ethoxy-5-morpholinopyridazin-3-yl)-6-methylpyridin-3-yl)isonicotinamide] | 1.8
14 | CCOc1nnc(-c2cc(NC(=O)c3cnnc(C(F)(F)F)c3)cnc2C)cc1N1CCOCC1 [Example 614, N-(5-(6-ethoxy-5-morpholinopyridazin-3-yl)-6-methylpyridin-3-yl)-6-(trifluoromethyl)pyridazine-4-carboxamide] | 4.2
15 | CCOc1nnc(-c2cc(NC(=O)c3ccnc(S(C)(=O)=O)c3)cnc2C)cc1N1CCOCC1 [Example 615, N-(5-(6-ethoxy-5-morpholinopyridazin-3-yl)-6-methylpyridin-3-yl)-2-(methylsulfonyl)isonicotinamide] | 12.3
16 | CCOc1nnc(-c2cc(NC(=O)c3ccnc(C(F)(F)F)c3)cnc2C)cc1N1CCOCC1 [Example 616, N-(5-(6-ethoxy-5-morpholinopyridazin-3-yl)-6-methylpyridin-3-yl)-2-(trifluoromethyl)isonicotinamide] | 1.6
17 | CCOc1nnc(-c2cc(NC(=O)c3ccnc(C(F)(F)CC)c3)cnc2C)cc1N1CCOCC1 [Example 617, 2-(1,1-difluoropropyl)-N-(5-(6-ethoxy-5-morpholinopyridazin-3-yl)-6-methylpyridin-3-yl)isonicotinamide] | 3.5
18 | CCOc1nnc(-c2cc(NC(=O)c3cccc(S(C)(=O)=O)c3)cnc2C)cc1N1CCOCC1 [Example 618, N-(5-(6-ethoxy-5-morpholinopyridazin-3-yl)-6-methylpyridin-3-yl)-3-(methylsulfonyl)benzamide] | 5
19 | CCOc1nnc(-c2cc(NC(=O)c3ccnc(C(C)(F)F)c3)cnc2C)cc1N1CCOCC1 [Example 620, 2-(1,1-difluoroethyl)-N-(5-(6-ethoxy-5-morpholinopyridazin-3-yl)-6-methylpyridin-3-yl)isonicotinamide] | 1.9
20 | CCOc1nnc(-c2cc(NC(=O)c3ccnc(C(C)C)c3)cnc2C)cc1N1CCOCC1 [Example 621, N-(5-(6-ethoxy-5-morpholinopyridazin-3-yl)-6-methylpyridin-3-yl)-2-isopropylisonicotinamide] | 2.6
21 | CCOc1nnc(-c2cc(NC(=O)c3cccc(C(F)(F)F)c3)cnc2C)cc1N1CCOC[C@H]1C [Example 622, (R)—N-(5-(6-ethoxy-5-(3-methylmorpholino)pyridazin-3-yl)-6-methylpyridin-3-yl)-3-(trifluoromethyl)benzamide] | 4.9
22 | CCOc1nnc(-c2cc(NC(=O)c3ccnc(C(C)(C)C#N)c3)cnc2C)cc1N1CCOC[C@H]1C [Example 623, (R)-2-(2-cyanopropan-2-yl)-N-(5-(6-ethoxy-5-(3-methylmorpholino)pyridazin-3-yl)-6-methylpyridin-3-yl)isonicotinamide] | 56.7

Other lines, results leading:

Row | IC50 [nM] | Compound
23 | 1.4 | Cc1ccc(NC(=O)c2ccnc(C(F)(F)F)c2)cc1-c1cc(N2CCOCC2)c(OCCO)nn1 [Example 585, N-(3-(6-(2-hydroxyethoxy)-5-morpholinopyridazin-3-yl)-4-methylphenyl)-2-(trifluoromethyl)isonicotinamide]
24 | 1.1 | Cc1ccc(NC(=O)c2ccnc(C(C)(F)F)c2)cc1-c1cc(N2CCOCC2)c(OCCO)nn1 [Example 587, 2-(1,1-difluoroethyl)-N-(3-(6-(2-hydroxyethoxy)-5-morpholinopyridazin-3-yl)-4-methylphenyl)isonicotinamide]
25 | 2.2 | Cc1ccc(NC(=O)c2ccnc(C(C)(C)F)c2)cc1-c1cc(N2CCOCC2)c(OCCO)nn1 [Example 588, 2-(2-fluoropropan-2-yl)-N-(3-(6-(2-hydroxyethoxy)-5-morpholinopyridazin-3-yl)-4-methylphenyl)isonicotinamide]
26 | 1.5 | CCC(F)(F)c1cc(C(=O)Nc2ccc(C)c(-c3cc(N4CCOCC4)c(OCCO)nn3)c2)ccn1 [Example 589, 2-(1,1-difluoropropyl)-N-(3-(6-(2-hydroxyethoxy)-5-morpholinopyridazin-3-yl)-4-methylphenyl)isonicotinamide]
27 | 2.1 | Cc1ccc(NC(=O)c2ccnc(C(C)(C)C#N)c2)cc1-c1cc(N2CCOCC2)c(OCCO)nn1 [Example 591, 2-(2-cyanopropan-2-yl)-N-(3-(6-(2-hydroxyethoxy)-5-morpholinopyridazin-3-yl)-4-methylphenyl)isonicotinamide]
28 | 0.6 | Cc1ccc(NC(=O)c2ccnc(C(C)(C)F)c2)cc1-c1cc(N2CCOCC2)c(OC(C)C)nn1 [Example 595, 2-(2-fluoropropan-2-yl)-N-(3-(6-isopropoxy-5-morpholinopyridazin-3-yl)-4-methylphenyl)isonicotinamide]
29 | 0.5 | COCCOc1nnc(-c2cc(NC(=O)c3ccnc(C(C)(F)F)c3)ccc2C)cc1N1CCOCC1 [Example 597, 2-(1,1-difluoroethyl)-N-(3-(6-(2-methoxyethoxy)-5-morpholinopyridazin-3-yl)-4-methylphenyl)isonicotinamide]
30 | 1.1 | COCCOc1nnc(-c2cc(NC(=O)c3ccnc(C(F)F)c3)ccc2C)cc1N1CCOCC1 [Example 598, 2-(difluoromethyl)-N-(3-(6-(2-methoxyethoxy)-5-morpholinopyridazin-3-yl)-4-methylphenyl)isonicotinamide]
31 | 0.5 | COCCOc1nnc(-c2cc(NC(=O)c3cc(C(F)(F)F)ccn3)ccc2C)cc1N1CCOCC1 [Example 599, N-(3-(6-(2-methoxyethoxy)-5-morpholinopyridazin-3-yl)-4-methylphenyl)-4-(trifluoromethyl)picolinamide]
32 | 0.8 | COCCOc1nnc(-c2cc(NC(=O)c3ccnc(C(C)(C)F)c3)ccc2C)cc1N1CCOCC1 [Example 600, 2-(2-fluoropropan-2-yl)-N-(3-(6-(2-methoxyethoxy)-5-morpholinopyridazin-3-yl)-4-methylphenyl)isonicotinamide]
33 | 1.1 | COCCOc1nnc(-c2cc(NC(=O)c3ccnc(C(C)(C)C#N)c3)ccc2C)cc1N1CCOCC1 [Example 601, 2-(2-cyanopropan-2-yl)-N-(3-(6-(2-methoxyethoxy)-5-morpholinopyridazin-3-yl)-4-methylphenyl)isonicotinamide]
34 | 10 | CCOc1nnc(-c2cc(NC(=O)c3ccnc(C(C)(C)C#N)c3)cnc2C)cc1N1CCOCC1 [Example 613, 2-(2-cyanopropan-2-yl)-N-(5-(6-ethoxy-5-morpholinopyridazin-3-yl)-6-methylpyridin-3-yl)isonicotinamide]
35 | 4.7 | CCOc1nnc(-c2cc(NC(=O)c3ccnc(C(C)(C)C#N)c3)ccc2C)cc1N1CCOC[C@H]1C [Example 624, (R)-2-(2-cyanopropan-2-yl)-N-(3-(6-ethoxy-5-(3-methylmorpholino)pyridazin-3-yl)-4-methylphenyl)isonicotinamide]
